In patent US9273057B2 (Bristol-Myers Squibb Company, priority 2012, dated 2016):

Biological target: CK2A1 (CK2α/β) (Homo sapiens, UniProt P68400)
Assay: CK2 kinase assay, CK2A1 (CK2α/β)
Assay type: biochemical
Details: Table A; read-out: CK2A1 (CK2α/β) (IC50)

Sequence of CK2A1 (CK2α/β) (P68400 whole entry, species assumed): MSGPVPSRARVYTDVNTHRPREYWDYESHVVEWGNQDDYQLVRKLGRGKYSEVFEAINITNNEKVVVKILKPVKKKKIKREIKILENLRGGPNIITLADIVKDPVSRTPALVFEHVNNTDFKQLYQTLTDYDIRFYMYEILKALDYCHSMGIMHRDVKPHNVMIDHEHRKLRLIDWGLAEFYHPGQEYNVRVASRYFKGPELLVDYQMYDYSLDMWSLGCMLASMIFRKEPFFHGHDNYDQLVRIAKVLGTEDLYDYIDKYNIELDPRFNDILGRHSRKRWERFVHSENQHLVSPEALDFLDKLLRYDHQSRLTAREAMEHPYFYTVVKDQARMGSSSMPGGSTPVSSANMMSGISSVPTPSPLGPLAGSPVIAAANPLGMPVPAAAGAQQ
Sequence of CK2A1 (CK2α/β) (P67870 whole entry partner, species assumed): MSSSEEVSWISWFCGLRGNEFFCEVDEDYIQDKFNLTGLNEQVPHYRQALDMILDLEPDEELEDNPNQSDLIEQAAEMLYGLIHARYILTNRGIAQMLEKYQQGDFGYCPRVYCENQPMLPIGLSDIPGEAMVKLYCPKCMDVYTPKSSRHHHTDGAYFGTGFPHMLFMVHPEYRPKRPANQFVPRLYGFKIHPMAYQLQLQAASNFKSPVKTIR

Row | SMILES | IC50 [nM]
1 | N#Cc1cc(Nc2nc(NC3CC3)c3ncc(C#N)n3n2)c(Cl)c(N2CCN(C3CN(C(=O)C4CCC(O)CC4)C3)CC2)c1 (stereo not drawn) [Example 512, 2-[(2-chloro-5-cyano-3-{4-[1-(4-hydroxycyclohexane-carbonyl)azetidin-3-yl]piperazin-1-yl}phenyl)amino]-4-(cyclopropylamino)imidazo[2,1-f][1,2,4]triazine-7-carbonitrile] | 5.8
2 | CO[C@H](C)C(=O)N1CC(N2CCN(c3cc(C#N)cc(Nc4nc(NC5CC5)c5ncc(C#N)n5n4)c3Cl)CC2)C1 [Example 513, 2-{[2-chloro-5-cyano-3-(4-{1-[(2R)-2-methoxypropanoyl]azetidin-3-yl}piperazin-1-yl)phenyl]amino}-4-(cyclopropylamino)imidazo[2,1-f][1,2,4]triazine-7-carbonitrile] | 3.08
3 | C[C@H](O)CC(=O)N1CC(N2CCN(c3cc(C#N)cc(Nc4nc(NC5CC5)c5ncc(C#N)n5n4)c3Cl)CC2)C1 [Example 514, 2-{[2-chloro-5-cyano-3-(4-{1-[(3S)-3-hydroxybutanoyl]azetidin-3-yl}piperazin-1-yl)phenyl]amino}-4-(cyclopropylamino)imidazo[2,1-f][1,2,4]triazine-7-carbonitrile] | 3.9
4 | CC1(C(=O)N2CC(N3CCN(c4cc(C#N)cc(Nc5nc(NC6CC6)c6ncc(C#N)n6n5)c4Cl)CC3)C2)COC1 [Example 515, 2-[(2-chloro-5-cyano-3-{4-[1-(3-methyloxetane-3-carbonyl)azetidin-3-yl]piperazin-1-yl}phenyl)amino]-4-(cyclopropylamino)imidazo[2,1-f][1,2,4]triazine-7-carbonitrile] | 4.84
5 | CC(F)(F)C(=O)N1CC(N2CCN(c3cc(C#N)cc(Nc4nc(NC5CC5)c5ncc(C#N)n5n4)c3Cl)CC2)C1 [Example 516, 2-[(2-chloro-5-cyano-3-{4-[1-(2,2-difluoropropanoyl)azetidin-3-yl]piperazin-1-yl}phenyl)amino]-4-(cyclopropylamino)imidazo[2,1-f][1,2,4]triazine-7-carbonitrile] | 4.09
6 | N#Cc1cc(Nc2nc(NC3CC3)c3ncc(C#N)n3n2)c(Cl)c(N2CCN(C3CN(C(=O)C4CCCO4)C3)CC2)c1 (stereo not drawn) [Example 517, 2-[(2-chloro-5-cyano-3-{4-[1-(oxolane-2-carbonyl)azetidin-3-yl]piperazin-1-yl}phenyl)amino]-4-(cyclopropylamino)imidazo[2,1-f][1,2,4]triazine-7-carbonitrile] | 3.66
7 | CC(C)OC(=O)N1CC(N2CCN(c3cc(C#N)cc(Nc4nc(NC5CC5)c5ncc(C#N)n5n4)c3Cl)CC2)C1 [Example 518, propan-2-yl 3-[4-(2-chloro-5-cyano-3-{[7-cyano-4-(cyclopropylamino)imidazo[2,1-f][1,2,4]triazin-2-yl]amino}phenyl)piperazin-1-yl]azetidine-1-carboxylate] | 10.3
8 | N#Cc1cc(Nc2nc(NC3CC3)c3ncc(C#N)n3n2)c(Cl)c(N2CCN(C3CN(C(=O)CC(N)=O)C3)CC2)c1 [Example 519, 3-{3-[4-(2-chloro-5-cyano-3-{[7-cyano-4-(cyclopropylamino)imidazo[2,1-f][1,2,4]triazin-2-yl]amino}phenyl)piperazin-1-yl]azetidin-1-yl}-3-oxopropanamide] | 3.2
9 | CCOC1CC1C(=O)N1CC(N2CCN(c3cc(C#N)cc(Nc4nc(NC5CC5)c5ncc(C#N)n5n4)c3Cl)CC2)C1 (stereo not drawn) [Example 520, 2-[(2-chloro-5-cyano-3-{4-[1-(2-ethoxycyclopropane-carbonyl)azetidin-3-yl]piperazin-1-yl}phenyl)amino]-4-(cyclopropylamino)imidazo[2,1-f][1,2,4]triazine-7-carbonitrile] | 4.96
10 | CO[C@@H](C)C(=O)N1CC(N2CCN(c3cc(C#N)cc(Nc4nc(NC5CC5)c5ncc(C#N)n5n4)c3Cl)CC2)C1 [Example 521, 2-{[2-chloro-5-cyano-3-(4-{1-[(2S)-2-methoxypropanoyl]azetidin-3-yl}piperazin-1-yl)phenyl]amino}-4-(cyclopropylamino)imidazo[2,1-f][1,2,4]triazine-7-carbonitrile] | 3.35
11 | CC1(C(=O)N2CC(N3CCN(c4cc(C#N)cc(Nc5nc(NC6CC6)c6ncc(C#N)n6n5)c4Cl)CC3)C2)COC1 [Example 522, 2-[(2-chloro-5-cyano-3-{4-[1-(3-methyloxetane-3-carbonyl)azetidin-3-yl]piperazin-1-yl}phenyl)amino]-4-(cyclopropylamino)imidazo[2,1-f][1,2,4]triazine-7-carbonitrile] | 3.69
12 | N#Cc1cc(Nc2nc(NC3CC3)c3ncc(C#N)n3n2)c(Cl)c(N2CCN(C3CN(C(=O)C4CCOC4)C3)CC2)c1 (stereo not drawn) [Example 523, 2-[(2-chloro-5-cyano-3-{4-[1-(oxolane-3-carbonyl)azetidin-3-yl]piperazin-1-yl}phenyl)amino]-4-(cyclopropylamino)imidazo[2,1-f][1,2,4]triazine-7-carbonitrile] | 4.77
13 | CCC(CO)(CO)C(=O)N1CC(N2CCN(c3cc(C#N)cc(Nc4nc(NC5CC5)c5ncc(C#N)n5n4)c3Cl)CC2)C1 [Example 524, 2-{[3-(4-{1-[2,2-bis(hydroxymethyl)butanoyl]azetidin-3-yl}piperazin-1-yl)-2-chloro-5-cyanophenyl]amino}-4-(cyclopropylamino)imidazo[2,1-f][1,2,4]triazine-7-carbonitrile] | 7.45
14 | N#Cc1cc(Nc2nc(NC3CC3)c3ncc(C#N)n3n2)c(Cl)c(N2CCC(C3COC3)CC2)c1 [Example 525, 2-((2-chloro-5-cyano-3-(4-(oxetan-3-yl)piperidin-1-yl)phenyl)amino)-4-(cyclopropylamino)imidazo[2,1-f][1,2,4]triazine-7-carbonitrile] | 3.2
15 | N#Cc1cc(Nc2nc(NC3CC3)c3ncc(C#N)n3n2)c(Cl)c(N2CCC(C(CO)CO)CC2)c1 [Example 526, 2-((2-chloro-5-cyano-3-(4-(1,3-dihydroxypropan-2-yl)piperidin-1-yl)phenyl)amino)-4-(cyclopropylamino)imidazo[2,1-f][1,2,4]triazine-7-carbonitrile] | 0.42
16 | CC1(C)CC(CN2CCN(c3cc(C#N)cc(Nc4nc(NC5CC5)c5ncc(C#N)n5n4)c3Cl)CC2)O1 (stereo not drawn) [Example 527, 2-((2-chloro-5-cyano-3-(4-((4,4-dimethyloxetan-2-yl)methyl)piperazin-1-yl)phenyl)amino)-4-(cyclopropylamino)imidazo[2,1-f][1,2,4]triazine-7-carbonitrile] | 1.91
17 | C[C@@H]1CC(CN2CCN(c3cc(C#N)cc(Nc4nc(NC5CC5)c5ncc(C#N)n5n4)c3Cl)CC2)O1 (stereo partly drawn) [Example 528, 2-((2-chloro-5-cyano-3-(4-(((4R)-4-methyloxetan-2-yl)methyl)piperazin-1-yl)phenyl)amino)-4-(cyclopropylamino)imidazo[2,1-f][1,2,4]triazine-7-carbonitrile] | 0.4
18 | C[C@H]1CC(CN2CCN(c3cc(C#N)cc(Nc4nc(NC5CC5)c5ncc(C#N)n5n4)c3Cl)CC2)O1 (stereo partly drawn) [Example 529, 2-((2-chloro-5-cyano-3-(4-(((4S)-4-methyloxetan-2-yl)methyl)piperazin-1-yl)phenyl)amino)-4-(cyclopropylamino)imidazo[2,1-f][1,2,4]triazine-7-carbonitrile] | 1.33
